The text below walks through data of US8865894B2, “Oxazolidin-2-one compounds and uses thereof” (Novartis AG, priority 2012, dated 2014).

The target in data set [1] is T1, human PI3Kalpha p110 catalytic subunit (Rat-1 pBABEpuro Myr-HA-hp110alpha) (Homo sapiens, UniProt P42336).
T1 construct: Myr (myristoylation signal) (N); HA (N); expressed in transfected cells; host or cells: Rat-1
The data set can be described thus: Cellular assay PI3Kalpha (p-Akt(S473) SureFire, Rat-1_PI3Kalpha cells). It is filed as cell-based. The following applies: 1 h compound treatment, read-out: Rat1-PI3Ka/ IC50. An excerpt:
AlphaScreen (Amplified Luminescent Proximity Homogeneous Assay, ALPHA, Perkin Elmer) is a non-radioactive bead-based proximity assay technology to study biomolecular interactions in a homogenous microtiter plate format. The brand name SureFire denotes AlphaScreen assays that are adapted to quantify the phosphorylation of endogenous cellular proteins in cell lysates, by using matched antibody pairs, which consist of an anti-phospho-kinase and an anti-kinase antibody. The assay allows characterization of kinase signaling in cells as well as measurement of kinase inhibitor effects. The AlphaScreen technology provides several advantages over standard assay techniques such as ELISA, as it avoids time-consuming washing procedures and reduces plate handling. Furthermore, it is miniaturizable at least to a 384-well format and provides sensitivity down to the femtomolar range, dependent on the affinity of the antibodies included in the individual AlphaScreen SureFire assay kit. High sensitivity is reached by an intrinsic amplification mechanism, which involves production of singlet oxygen molecules. SureFire assay kits are commercially available for specific targets and include pairs of validated antibodies (PerkinElmer). This report describes common procedures applied for AlphaScreen SureFire assays and respective semi-automated steps for routine kinase inhibitor profiling in cell-based assays.
The Rat-1 cell lines stably overexpressing activated PI3K class I isoforms Rat-1 pBABEpuro Myr-HA-hp110 delta (Rat-1_PI3Kdelta) and Rat-1 pBABEpuro Myr-HA-hp110alpha (Rat-1_PI3Kalpha) and Rat-1 pBABEpuro Myr-HA-hp110 beta (Rat-1_PI3beta) were prepared as described (Maira S M, Stauffer F, Brueggen J, Furet P, Schnell C, Fritsch C, Brachmann S, Chène P, de Pover A, Schoemaker K, Fabbro D, Gabriel D, Simonen M, Murphy L, Finan P, Sellers W, García-Echeverría C (2008), Mol Cancer Ther. 7:1851-63 and Maira S M, Pecchi S, Brueggen J, Huh K, Schnell C, Fritsch C, Nagel T, Wiesmann M, Brachmann S, Dorsch M, Chène P, Schoemaker K, De Pover A, Menezes D, Fabbro D, Sellers W, García-Echeverría C, Voliva C F (2011), Mol. Cancer Ther., accepted). All cell lines were cultivated in complete growth medium (DMEM high glucose, 10% (v/v) fetal bovine serum, 1% (v/v) MEM NEAA, 10 mM HEPES, 2 mM L-glutamine, puromycin (10 μg/mL for Rat-1_PI3Kdelta and Rat-1_PI3Kalpha, 4 ug/mL for Rat-1_PI3beta), 1% (v/v) Pen/Strep) to 90% confluency at 37° C./5% CO2/90% humidity in a humidified CO2 incubator and were split twice a week.
The following materials were used for p-AKT(S473) detection in Rat-1 cell lysates: Dulbecco's modified Eagle's medium (DMEM) high glucose (Gibco Invitrogen, Basel, Switzerland, Cat. No. 41965), Heat Inactivated Fetal Bovine Serum, Qualified (HI FBS; Gibco Invitrogen, Basel, Switzerland, Lot. No. 16140), MEM non essential amino acids (NEAA; Gibco Invitrogen, Basel, Switzerland, Cat. No. 11140), HEPES (Gibco Invitrogen, Basel, Switzerland, Cat. No. 15630), Penicillin/Streptomycin (Pen/Strep, 100×; Gibco Invitrogen, Basel, Switzerland, Cat. No. 15140-122), L-Glutamine (Gibco Invitrogen, Basel, Switzerland, Cat. No. 25030), Puromycin (Sigma Aldrich, Buchs, Switzerland, Cat. No. P9620), DMSO (MERCK, Dietikon, Switzerland, Cat. No. 8.02912.2500), H2O, MilliQ-H2O unless otherwise stated (MILLIPORE QGARDOOR1, Millipore, Zug, Switzerland), Bovine serum albumine (BSA; Sigma Aldrich, Buchs, Switzerland Cat. No. A8412), SureFire p-Akt 1/2 (Ser473) Assay Kit (PerkinElmer, Schwerzenbach, Switzerland, Cat. No. TGRAS50K).
The p-Akt(S473) SureFire assay measures the phosphorylation of endogenous cellular Akt 1/2 at Ser473 in cell lysates. Using Rat-1 cells stably expressing myr-HA-tagged versions of the human PI3Kdelta, PI3Kalpha, or PI3Kbeta p110 catalytic subunit isoforms, the assay was developed as a two-plate protocol in a 384-well format.

The subject of a further data set is A2058 cells. The data set can be described thus: Cell cycle G2/M arrest Cytospin assay to detect tubulin binding (off-target). In kind it is cell-based. More on the design: key: 0=no condensed DNA observed (indicating no off target activity); 1=(indicating weak off target activity); 2=(indicating medium off target activity); 3=large amount of condensed DNA observed (indicating strong off-target activity). The note with it: 5 μM test item, 24 hours. On the procedure:
The off-target effect (evidence of tubulin binding) was measured as follows.
Cell cycle G2/M arrest Cytospin assay to detect tubulin binding (off-target) binding activities of MAPP derivatives: 5×10^5 cells A2058 cells were plated in 6-well cluster, with 2 mL of DMEM (high Glucose containing 1% sodium pyruvate, 1% glutamin and 10% FCS). 18 hours later, the test items were added at a concentration of 5 μM (spiking 1 μL of a 10 mM solution of the test item). 24 hours later, the cells were trypsinized and transferred into a 15 mL conical tube. Cells are then pelleted by centrifugation, and resuspended with PBS/0 (containing 10% FCS). Cells are counted with a CASY counter, and each samples equilibrated to 1×10^6 cells/mL. […] The staining was visually assessed for the presence of condensed DNA and given a score where 0=no condensed DNA observed (indicating no off target activity), 1=(indicating weak off target activity), 2=(indicating medium off target activity), 3=large amount of condensed DNA observed (indicating strong off-target activity).

T1 sequence (P42336 whole entry): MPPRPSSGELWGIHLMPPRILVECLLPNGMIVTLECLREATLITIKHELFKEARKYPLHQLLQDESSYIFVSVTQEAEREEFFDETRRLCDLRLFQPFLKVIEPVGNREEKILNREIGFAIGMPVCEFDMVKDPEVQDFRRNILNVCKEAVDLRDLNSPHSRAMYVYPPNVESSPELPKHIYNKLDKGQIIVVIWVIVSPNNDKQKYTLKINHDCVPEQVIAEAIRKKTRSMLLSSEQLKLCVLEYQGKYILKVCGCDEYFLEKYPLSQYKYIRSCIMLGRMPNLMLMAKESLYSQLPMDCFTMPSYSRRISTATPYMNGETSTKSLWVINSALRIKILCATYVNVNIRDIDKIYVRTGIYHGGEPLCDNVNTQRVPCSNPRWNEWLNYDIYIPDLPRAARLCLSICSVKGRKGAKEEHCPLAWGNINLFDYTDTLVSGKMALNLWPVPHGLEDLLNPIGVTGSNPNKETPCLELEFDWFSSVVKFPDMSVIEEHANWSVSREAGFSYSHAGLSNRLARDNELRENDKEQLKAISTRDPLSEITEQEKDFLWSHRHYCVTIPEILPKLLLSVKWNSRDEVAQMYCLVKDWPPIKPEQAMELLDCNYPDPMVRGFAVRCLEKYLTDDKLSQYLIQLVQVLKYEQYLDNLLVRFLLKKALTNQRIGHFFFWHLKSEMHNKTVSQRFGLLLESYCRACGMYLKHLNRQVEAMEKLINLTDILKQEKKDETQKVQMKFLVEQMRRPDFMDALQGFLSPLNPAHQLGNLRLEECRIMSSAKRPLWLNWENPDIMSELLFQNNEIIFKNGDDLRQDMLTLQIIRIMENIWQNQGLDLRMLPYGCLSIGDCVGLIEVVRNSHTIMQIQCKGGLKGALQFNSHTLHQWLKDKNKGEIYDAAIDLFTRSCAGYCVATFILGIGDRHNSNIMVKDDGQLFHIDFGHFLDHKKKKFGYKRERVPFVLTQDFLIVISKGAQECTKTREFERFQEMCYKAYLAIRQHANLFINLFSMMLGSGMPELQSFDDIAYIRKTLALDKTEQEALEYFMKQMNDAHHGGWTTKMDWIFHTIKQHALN
T1 sequence (Q63787 whole entry partner): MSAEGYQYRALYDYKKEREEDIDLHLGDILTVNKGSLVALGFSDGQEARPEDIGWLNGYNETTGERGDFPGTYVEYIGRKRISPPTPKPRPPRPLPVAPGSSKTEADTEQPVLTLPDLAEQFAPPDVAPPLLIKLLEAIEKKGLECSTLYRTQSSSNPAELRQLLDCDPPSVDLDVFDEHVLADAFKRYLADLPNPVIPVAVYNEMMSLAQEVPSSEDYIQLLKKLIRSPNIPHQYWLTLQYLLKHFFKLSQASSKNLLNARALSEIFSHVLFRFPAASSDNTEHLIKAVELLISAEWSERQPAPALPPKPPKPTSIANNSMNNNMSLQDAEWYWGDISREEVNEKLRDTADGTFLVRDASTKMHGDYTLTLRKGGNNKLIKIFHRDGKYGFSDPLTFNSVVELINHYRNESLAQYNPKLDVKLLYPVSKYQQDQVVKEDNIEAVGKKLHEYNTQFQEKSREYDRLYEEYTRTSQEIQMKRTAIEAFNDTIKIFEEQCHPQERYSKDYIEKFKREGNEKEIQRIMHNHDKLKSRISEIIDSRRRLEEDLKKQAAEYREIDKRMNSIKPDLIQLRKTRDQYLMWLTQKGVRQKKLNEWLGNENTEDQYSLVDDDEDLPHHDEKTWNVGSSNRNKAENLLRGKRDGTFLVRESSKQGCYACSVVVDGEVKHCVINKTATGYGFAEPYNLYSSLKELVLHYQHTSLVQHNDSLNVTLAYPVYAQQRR

Regarding `C[C@H]1CN(c2cc(-c3cnc(N)nc3C(F)(F)F)nc(N3CCOCC3)n2)C(=O)O1` [Example 16, (S)-3-(2′-Amino-2-morpholin-4-yl-4′-trifluoromethyl-[4,5′]bipyrimidinyl-6-yl)-5-methyl-oxazolidin-2-one], the IC50 in data set [1] was found to be 108 nM. Moreover, the “Score (condensed DNA, G2/M arrest; off-target tubulin binding)” value (“Score” below) in the data set with A2058 cells is reported as 0.
On to `C[C@H]1[C@@H](CCO)OC(=O)N1c1cc(-c2cnc(N)nc2C(F)(F)F)nc(N2CCOCC2)n1` [Example 23, (4S,5R)-3-(2′-Amino-2-morpholino-4′-(trifluoromethyl)-[4,5′-bipyrimidin]-6-yl)-5-(2-hydroxyethyl)-4-methyloxazolidin-2-one], for which the IC50 in data set [1] amounted to 20 nM. For the same compound, in the data set with A2058 cells, the “Score” value turned out to be 0.
For the compound `Nc1ncc(-c2cc(N3C[C@@H](CO)OC3=O)nc(N3CCOCC3)n2)c(C(F)(F)F)n1` [Example 14, (S)-3-(2′-Amino-2-morpholin-4-yl-4′-trifluoromethyl-[4,5′]bipyrimidinyl-6-yl)-5-hydroxymethyl-oxazolidin-2-one], in data set [1], the IC50 is 277 nM. Also, the “Score” value in the data set on A2058 cells is listed as 0.
Regarding `C[C@H]1C(CC(C)(C)O)OC(=O)N1c1cc(-c2cnc(N)nc2C(F)(F)F)nc(N2CCOCC2)n1` (mixture of isomers) [Example 26, (4S,5R)- and (4S,5S)-3-(2′-amino-2-morpholino-4′-(trifluoromethyl)-[4,5′-bipyrimidin]-6-yl)-5-(2-hydroxy-2-methylpropyl)-4-methyloxazolidin-2-one], in data set [1], the IC50 was determined as 58 nM. Moreover, the “Score” value with A2058 cells stood at 0.
For `C[C@H]1COC(=O)N1c1cc(-c2cnc(N)nc2C(F)(F)F)nc(N2CCOCC2)n1` [Example 1, (S)-3-(2′-Amino-2-morpholin-4-yl-4′-trifluoromethyl-[4,5′]bipyrimidinyl-6-yl)-4-methyl-oxazolidin-2-one], in data set [1], the IC50 was 48 nM. The “Score” value in the data set with A2058 cells is reported as 0.
For `[2H]C1([2H])OC([2H])([2H])C([2H])([2H])N(c2nc(-c3cnc(N)nc3C(F)(F)F)cc(N3C(=O)OC[C@@H]3C)n2)C1([2H])[2H]` [Example 17, (S)-3-(2′-amino-2-D8-morpholino-4′-(trifluoromethyl)-[4,5′-bipyrimidin]-6-yl)-4-methyloxazolidin-2-one], in that order: 178 nM and 0.
With `C[C@@H](O)C[C@H]1OC(=O)N(c2cc(-c3cnc(N)nc3C(F)(F)F)nc(N3CCOCC3)n2)[C@H]1C` (single isomer, unassigned) [Example 24], in data set [1], the IC50 stood at 45 nM. For the same compound, the “Score” value with A2058 cells was 0.
For `Nc1ncc(-c2cc(N3CCOC3=O)nc(N3CCOCC3)n2)c(C(F)(F)F)n1` [Example 11, 3-(2′-Amino-2-morpholin-4-yl-4′-trifluoromethyl-[4,5′]bipyrimidinyl-6-yl)-oxazolidin-2-one, reference compound], the IC50 in data set [1] was 256 nM. The “Score” value in the data set on A2058 cells turned out to be 3.
`C[C@H]1COCCN1c1nc(-c2cnc(N)nc2C(F)(F)F)cc(N2C(=O)OC[C@@H]2C)n1` [Example 13, (S)-3-[2′-Amino-2-((S)-3-methyl-morpholin-4-yl)-4′-trifluoromethyl-[4,5′]bipyrimidinyl-6-yl]-4-methyl-oxazolidin-2-one]: the IC50 in data set [1] was determined as 58 nM. The “Score” value in the data set with A2058 cells came out at 0.
As for `C[C@H]1[C@H](CO)OC(=O)N1c1cc(-c2cnc(N)nc2C(F)(F)F)nc(N2CCOCC2)n1` [Example 15, (4S,5R)-3-(2′-Amino-2-morpholin-4-yl-4′-trifluoromethyl-[4,5′]bipyrimidinyl-6-yl)-5-hydroxymethyl-4-methyl-oxazolidin-2-one], the IC50 in data set [1] came out at 79 nM. Also, in the data set on A2058 cells, the “Score” value is on record as 0.
For `CC1(CO)COC(=O)N1c1cc(-c2cnc(N)nc2C(F)(F)F)nc(N2CCOCC2)n1` (racemic) [Example 3, 3-(2′-amino-2-morpholino-4′-(trifluoromethyl)-4,5′-bipyrimidin-6-yl)-4-(hydroxymethyl)-4-methyloxazolidin-2-one] the same measures were 147 nM and 0.
For the compound `CC1(C)OC(=O)N(c2cc(-c3cnc(N)nc3C(F)(F)F)nc(N3CCOCC3)n2)[C@H]1CO` [Example 2, (S)-3-(2′-Amino-2-morpholin-4-yl-4′-trifluoromethyl-[4,5′]bipyrimidinyl-6-yl)-4-hydroxymethyl-5,5-dimethyl-oxazolidin-2-one], in data set [1], the IC50 came to 134 nM.
Take `Nc1ncc(-c2cc(N3C(=O)OC[C@@H]3CCO)nc(N3CCOCC3)n2)c(C(F)(F)F)n1` [Example 9, (S)-3-(2′-Amino-2-morpholin-4-yl-4′-trifluoromethyl-[4,5′]bipyrimidinyl-6-yl)-4-(2-hydroxy-ethyl)-oxazolidin-2-one]: in data set [1], the IC50 amounted to 147 nM.
As for `Nc1ncc(-c2cc(N3C(=O)O[C@H]4CCCC[C@@H]43)nc(N3CCOCC3)n2)c(C(F)(F)F)n1` [Example 4, (3aS,7aS)-3-(2′-Amino-2-morpholin-4-yl-4′-trifluoromethyl-[4,5′]bipyrimidinyl-6-yl)-hexahydro-benzooxazol-2-one], the IC50 in data set [1] was 31 nM. In addition, in the data set with A2058 cells, the “Score” value is recorded as 0.
Turning to `Nc1ncc(-c2cc(N3C(=O)O[C@H]4COC[C@H]43)nc(N3CCOCC3)n2)c(C(F)(F)F)n1` [Example 21, (3aR,6aR)-3-(2′-amino-2-morpholino-4′-(trifluoromethyl)-[4,5′-bipyrimidin]-6-yl)-tetrahydrofuro[3,4-d]oxazol-2(3H)-one], the IC50 in data set [1] was 85 nM. The “Score” value in the data set with A2058 cells is 0.
Regarding `Nc1ncc(-c2cc(N3C(=O)OC4C(O)CCC43)nc(N3CCOCC3)n2)c(C(F)(F)F)n1` (single isomer, unassigned) [Example 22A], the IC50 in data set [1] turned out to be 86 nM.
In the case of `Nc1ncc(-c2cc(N3C(=O)OC4C(O)CCC43)nc(N3CCOCC3)n2)c(C(F)(F)F)n1` (single isomer, unassigned) [Example 22B], the IC50 in data set [1] came to 148 nM.
